These are literature values, as cited in US20230012071A1, “MODIFIED RELEASE PHARMACEUTICAL COMPOSITIONS OF RIOCIGUAT” (ZYDUS LIFESCIENCES LIMITED, priority 2019, published 2023).

The structures appear in SMILES notation. Bounds are passed on as bounds.

For this data set the following is noted: existing marketed immediate release tablet.

Consider `COC(=O)N(C)c1c(N)nc(-c2nn(Cc3ccccc3F)c3ncccc23)nc1N`, for which the absolute bioavailability entry was “about 94%” and the “time at which peak plasma concentrations are observed following drug administration” value was at most 1.5 h.
